The test system of data set [1] is Mycosphaerella graminicola; Anamorph: Septoria tritici; Bayer Code SEPTTR. Put plainly: Fungicidal activity: leaf blotch of wheat, protectant and curative treatment of inoculated wheat plants. It counts as in vivo. The conditions noted are these: Zymoseptoria tritici. How it is done: Evaluation of Fungicidal Activity: Leaf Blotch of Wheat (Mycosphaerella graminicola; Anamorph: Septoria tritici; Bayer Code SEPTTR)
Wheat plants (variety Yuma) were grown from seed in a greenhouse in 50% mineral soil/50% soil-less Metro mix until the first leaf was fully emerged, with 7-10 seedlings per pot. These plants were inoculated with an aqueous spore suspension of Septoria tritici either prior to or after fungicide treatments. After inoculation the plants were kept in 100% relative humidity (one day in a dark dew chamber followed by two to three days in a lighted dew chamber) to permit spores to germinate and infect the leaf. The plants were then transferred to a greenhouse for disease to develop.
The following table presents the activity of typical compounds of the present disclosure when evaluated in these experiments. The effectiveness of the test compounds in controlling disease was determined by assessing the severity of disease on treated plants, then converting the severity to percent control based on the level of disease on untreated, inoculated plants.
In each case of Table II the rating scale is as follows: […]

[2] abbreviates: 24 h, One-Day Protectant (1DP), 100 ppm, wheat plants (variety Yuma), percent control vs untreated inoculated plants, read-out: SEPTTR 100 PPM 1DP (% Disease Control rating).
Setting [3] is: 72 h, Three-Day Curative (3DC), 100 ppm, wheat plants (variety Yuma), percent control vs untreated inoculated plants, read-out: SEPTTR 100 PPM 3DC (% Disease Control rating).
[4] abbreviates: 24 h, read-out: SEPTTR 100 PPM 1DP (% Disease Control rating).
The mark [5] stands for this setting: 72 h, read-out: SEPTTR 100 PPM 3DC (% Disease Control rating).

Where two headings read alike, the source gives them in different places.

A word on the melting point: it is the temperature of the solid-liquid transition.

Consider `CC(C)(C)C(=O)Nc1nc(=O)n(S(=O)(=O)c2ccc(Cl)cc2)cc1F` [Cmpd 36], for which the melting point was in the range of 129 to 132 °C. For the same compound, the pest or weed control at 100 ppm in data set [1] (setting [2]) was 76 to 100%. Further, in data set [1] (setting [3]), the pest or weed control at 100 ppm lay within 76 to 100%.

`Nc1nc(=O)n(S(=O)(=O)c2ccccc2)cc1F` [Cmpd 24] registered a melting point of 195 to 196 °C. In addition, the pest or weed control at 100 ppm in data set [1] (setting [2]) was 76 to 100%. The pest or weed control at 100 ppm in data set [1] (setting [3]) is 76 to 100%.

Turning to `Cc1cc(Oc2ncc(C(F)(F)F)cc2Cl)ccc1S(=O)(=O)n1cc(F)c(N)nc1=O` [Cmpd 23], the melting point was 132 °C (dec.). The pest or weed control at 100 ppm in data set [1] (setting [2]) was 76 to 100%. Also, the pest or weed control at 100 ppm in data set [1] (setting [3]) was 76 to 100%.

On to `O=C(Nc1ccccc1)Nc1nc(=O)n(S(=O)(=O)c2ccccc2)cc1F` [Cmpd 40, 1-(1-benzenesulfonyl-5-fluoro-2-oxo-1,2-dihydropyrimidin-4-yl)-3-phenylurea], for which the melting point was in the range of 210 to 214 °C. Moreover, in data set [1] (setting [4]), the pest or weed control at 100 ppm was in the range of 0 to 25%. The pest or weed control at 100 ppm in data set [1] (setting [5]) is 26 to 50%.

`O=c1nc(NC(=S)Nc2ccccc2)c(F)cn1S(=O)(=O)c1ccccc1` [Cmpd 44, (1-benzenesulfonyl-5-fluoro-2-oxo-1,2-dihydropyrimidin-4-yl)-3-phenylthiourea] showed a melting point of 205 to 208 °C. Also, the pest or weed control at 100 ppm in data set [1] (setting [4]) fell in the range of 0 to 25%. Further, in data set [1] (setting [5]), the pest or weed control at 100 ppm was in the range of 26 to 50%.

Consider `CN(C)/C=N/c1nc(=O)n(S(=O)(=O)c2ccc(Cl)cc2)cc1F` [Cmpd 2, N′-[1-(4-chloro-benzenesulfonyl)-5-fluoro-2-oxo-1,2-dihydro-pyrimidin-4-yl]-N,N-dimethylformamidine], for which the melting point was in the range of 207 to 210 °C. For the same compound, the pest or weed control at 100 ppm in data set [1] (setting [2]) was 76 to 100%. In addition, the pest or weed control at 100 ppm in data set [1] (setting [3]) was in the range of 76 to 100%.

In the case of `Nc1nc(=O)n(S(=O)(=O)c2c(Cl)cccc2Cl)cc1F` [Cmpd 18], the melting point lay in the range of 209 to 212 °C. Further, the pest or weed control at 100 ppm in data set [1] (setting [2]) is 76 to 100%. The pest or weed control at 100 ppm in data set [1] (setting [3]) is 76 to 100%.

Consider `Nc1nc(=O)n(S(=O)(=O)c2cccs2)cc1F` [Cmpd 9], for which the melting point fell in the range of 187 to 189 °C. Also, the pest or weed control at 100 ppm in data set [1] (setting [2]) is 76 to 100%. Further, the pest or weed control at 100 ppm in data set [1] (setting [3]) fell in the range of 76 to 100%.

`O=C(Nc1nc(=O)n(S(=O)(=O)c2ccccc2)cc1F)Oc1ccccc1` [Cmpd 47, (1-benzenesulfonyl-5-fluoro-2-oxo-1,2-dihydropyrimidin-4-yl)carbamic acid phenyl ester] registered a melting point of 182 to 185 °C. Moreover, the pest or weed control at 100 ppm in data set [1] (setting [4]) lay in the range of 51 to 75%. The pest or weed control at 100 ppm in data set [1] (setting [5]) is 76 to 100%.
